Data on nine compounds can be found in patent publication US20110028509A1, “Sulfonamides” (MERCK SERONO SA, priority 2008, published 2011).

Assay [1] deals with T1, CXCR3 (Homo sapiens, UniProt P49682).
T1 sequence (P49682 1-368): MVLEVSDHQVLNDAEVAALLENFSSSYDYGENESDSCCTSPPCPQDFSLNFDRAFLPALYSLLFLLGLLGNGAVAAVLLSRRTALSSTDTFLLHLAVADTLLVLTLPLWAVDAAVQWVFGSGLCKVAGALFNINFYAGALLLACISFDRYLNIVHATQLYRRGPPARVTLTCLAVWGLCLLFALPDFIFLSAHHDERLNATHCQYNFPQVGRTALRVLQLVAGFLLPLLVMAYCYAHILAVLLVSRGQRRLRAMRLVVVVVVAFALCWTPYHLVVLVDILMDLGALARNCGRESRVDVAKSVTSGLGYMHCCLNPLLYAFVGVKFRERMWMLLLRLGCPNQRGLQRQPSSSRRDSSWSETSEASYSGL
Description: Chemotaxis assay IP10, L1.2 recombinant cells expressing hCXCR3. The format is cell-based. To be noted: L1.2 hCXCR3 cells, IP10 around 0.3 nM, 4 hours.

Assay [2] has as its target T1, CXCR3. Nature of the assay: Radioligand binding, scintillation proximity assay ([125I]IP-10 or [125I]I-TAC competition) on CHO-CXCR3 cell membranes. More on the design: host or cells: CHO cells stably expressing hCXCR3. To be noted: [125I]IP-10, human CXCR3 cell membranes, Cheng-Prusoff; read-out: Binding Ki (μM) IP10. How it is done: Human chinese hamster ovary (CHO) cell line stably expressing hCXCR3 was purchased from Euroscreen (Belgium) and culture in HAM's F12 (Invitrogen) containing 10% heat inactivated fetal calf serum (Cancerra, Australia), 50 units ml−1 penicillin, 50 μml−1 streptomycin, (Invitrogen, USA) and 400 μg/ml geneticin (G418) (Calbiochem, San Diego), according to the manufacturer.
CHO cells expressing the human CXCR3 were disrupted by nitrogen cavitation (Parr Instruments, USA) at 4° C., 800 p.s.i. for 30 min in 50 mM Tris-HCl pH 7.5, 2 mM EDTA, 250 mM Sucrose and protease inhibitors (Roche). Cell membranes were prepared by differential centrifugation (200×g for 10 min, then 100000×g for 60 min). Membranes pellets were re-suspended in 50 mM Tris-HCL pH 7.4, 1 mM EDTA, 10 mM MgCl2, 250 mM sucrose and inhibitor of proteases. Purified CHO-CXCR3 cell membranes were frozen in liquid nitrogen and stored at −80° C.
A scintillation proximity assay was used for radioligand competition and saturation binding assays. For each assay point, 1 to 5 μg of human CXCR3 cell membranes were incubated in a final volume of 100 μl in 96 well plates (Corning, USA) for 120 minutes with shaking at room temperature in presence of 100 μg of wheat germ agglutinin-coated scintillation proximity assay beads (WGA-SPA, RPNQ0001, GE Healthcare), 0.05-0.1 nM [125I]I-TAC (Perkin Elmer, 1366Cie/mmol) or 0.1 nM [125I]IP-10 (Perkin Elmer, 2200 Cie/mmol) in binding buffer (50 mM HEPES/KOH pH 7.4, 10 mM MgCl2, 1 mM CaCl2, 0.1% bovine serum albumin (BSA), 100 mM NaCl with protease inhibitor cocktail tablets (Roche). Assay was performed in presence of 1% dimethylsulphoxide (Me2SO). Binding activity was determined using a 1450 Micro-beta scintillation counter (Wallac, UK). Ki values were calculated using the Cheng-Prusoff equation (Cheng and Prusoff, 1973) and represent the average of at least three independent dose response experiments.

In assay [3] the target is T1, CXCR3. Description: Chemotaxis assay ITAC (CXCL11), L1.2-CXCR3 cells. The assay is classed as cell-based. More on the design: expressed in transfected cells. The conditions noted are these: 1 nM CXCL11 (I-TAC), 4 hours. In short, it runs like this:
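Murine pre-B L1.2 cells stably expressing human CXCR3, pretreated 24 h with 5 mM butyric acid, preincubated with compound 30 min at 37 °C in 1% DMSO. Migration toward 1 nM CXCL11 (also with compound) through 8 μm filters for 4 h at 37 °C; migrated cells counted with CyQuant GR dye.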

The target in assay [4] is T1, CXCR3. Description: CXCR3 Ca2+ mobilization (FLIPR), stable hCXCR3-CHO cell line, I-TAC stimulated. The format is cell-based. More on the design: host or cells: CHO cells stably expressing hCXCR3. To be noted: hCXCR3-CHO cells, I-TAC 100 nM stimulated Ca2+ response; read-out: Ca-ITAC. In short, it runs like this: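 Ca2+ mobilization triggered by I-TAC (100 nM) measured by FLIPR in a stable hCXCR3-CHO line. Dye-loaded (60 min) cells preincubated with compounds 20 minutes at room temperature; antagonism given relative to the compound-free I-TAC signal set at 100%.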

With `O=C(NCc1cccs1)c1ccc(CN(Cc2ccccc2)S(=O)(=O)c2ccc(Cl)cc2)cc1` [Example 7, 4-({benzyl[(4-chlorophenyl)sulfonyl]amino}methyl)-N-(2-thienylmethyl)benzamide], the IC50 on CXCR3 [1] was 0.192 µM. Besides, the Ki on CXCR3 [2] amounted to 0.299 µM.

With `O=C(NCc1cccc(Cl)c1)c1ccc(CN(Cc2ccccc2)S(=O)(=O)c2ccc(Cl)cc2)nc1` [Example 8, 6-({benzyl[(4-chlorophenyl)sulfonyl]amino}methyl)-N-(3-chlorobenzyl)nicotinamide], the IC50 on CXCR3 [1] amounted to 0.369 µM. The Ki at CXCR3 [2] is 0.64 µM.

For `O=C(NC1(c2ccccc2)CC1)c1ccc(CN(Cc2ccccc2)S(=O)(=O)c2ccc(Cl)cc2)cc1` [Example 10, 4-({benzyl[(4-chlorophenyl)sulfonyl]amino}methyl)-N-(1-phenylcyclopropyl)benzamide], the IC50 at CXCR3 [1] is 0.238 µM. Besides, the Ki on CXCR3 [2] amounted to 0.155 µM.

Turning to `O=C(NS(=O)(=O)Cc1ccccc1)c1ccc(CN(Cc2ccccn2)S(=O)(=O)c2ccc(Cl)cc2)cc1` [Example 11, N-(benzylsulfonyl)-4-{[[(4-chlorophenyl)sulfonyl](pyridin-2-ylmethyl)amino]methyl}benzamide], at CXCR3 [1], the IC50 was 0.404 µM. For the same compound, the inhibitory constant (Ki) at CXCR3 [2] amounted to 0.1 µM.

With `O=C(NS(=O)(=O)c1cccc(Cl)c1)c1ccc(CN(Cc2ccccc2)S(=O)(=O)c2ccc(Cl)cc2)cc1` [Example 12, N-[(3-chlorophenyl)sulfonyl]-4-{[benzyl[(4-chlorophenyl)sulfonyl]amino]methyl}benzamide], the IC50 on CXCR3 [1] came to 0.865 µM. On CXCR3 [2], the Ki is 1.65 µM.

Turning to `O=C(NS(=O)(=O)c1cccc(Cl)c1)c1ccc(CN(Cc2ccccn2)S(=O)(=O)c2ccc(Cl)cc2)cc1` [Example 13, N-[(3-chlorophenyl)sulfonyl]-4{[[(4-chlorophenyl)sulfonyl](pyridin-2-ylmethyl)amino]methyl}benzamide], the IC50 on CXCR3 [1] came out at 0.138 µM. The Ki on CXCR3 [2] is 0.066 µM.

For `O=S(=O)(c1ccc(Cl)cc1)N(Cc1ccc(-c2nnn[nH]2)cc1)Cc1ccccn1` [Example 16, 4-chloro-N-(pyridin-2-ylmethyl)-N-[4-(1H-tetrazol-5-yl)benzyl]benzenesulfonamide], on CXCR3 [1], the IC50 stood at 0.496 µM. Further, the Ki at CXCR3 [2] worked out at 0.092 µM.

Turning to `O=C(NC1(c2ccccc2)CC1)c1ccc(CN(Cc2ccccn2)S(=O)(=O)c2ccc(Cl)cc2)cc1` [Example 40, 4-{[(4-Chloro-benzenesulfonyl)-pyridin-2-ylmethyl-amino]-methyl}-N-(1-phenyl-cyclopropyl)-benzamide], the IC50 at CXCR3 [1] was 0.025 µM; against CXCR3 [3], 53 nM; on CXCR3 [4], 90 nM. Moreover, at CXCR3 [2], the inhibitory constant (Ki) was determined as 0.015 µM.

In the case of `N#Cc1ccc(S(=O)(=O)N(Cc2ccc(C(=O)NC3(c4ccccc4)CC3)cc2)Cc2ccccn2)cc1` [Example 44], the IC50 is 0.013 µM on CXCR3 [1], 33 nM against CXCR3 [3] and 268 nM on CXCR3 [4]. In addition, on CXCR3 [2], the Ki is 0.01 µM.

Usually Ki stands for the equilibrium dissociation constant of an inhibitor or competing ligand from its target.
